Laboratory results from paper PMC4503439, “Dose-Independent ADME Properties and Tentative Identification of Metabolites of α-Mangostin from Garcinia mangostana in Mice by Automated Microsampling and UPLC-MS/MS Methods” (PLoS ONE, 2015).

test: Tentative identification of metabolites from α-MG by UPLC-MS/MS; type: in vivo; settings: mice after intravenous and oral α-MG; S9 fractions after 30-min incubation
Text: Probable metabolites of α-MG were identified using the simultaneous full scan MS, MRM and MS/MS modes in a Waters UPLC-XEVO TQ system (Waters Corporation, Milford, USA) to confirm the structures of any metabolites. […] Structural elucidation of the metabolites was based on the fragmentation patterns of parent ion from the MS/MS mode at a collision energy of 10 to 20 eV generating daughter ions. The mass transitions for α-MG was m/z 411.21 → 354.85 (collision energy of 20 eV and collision cell exit potential of 25 eV, respectively). The unknown masses were further analyzed in MS/MS (daughter scan) mode with the electrospray ionization interface used to generate positive and negative ions at a capillary voltage of 3.0 kV, source temperature of 350°C and desolvation gas temperature of 650°C. The MRM methods for identification of possible metabolites generated by phase I and/or II reactions were included.
These compounds were separated on a reversed-phase C18 column (XSELECT CSH, 2.1 mm × 100 mm i.d., 1.7-μm particle size; Waters, Ireland) with a flow rate of 0.35 mL/min. The mobile phase composition was started at 95: 5 (v/v) of distilled water containing 0.1% formic acid (A) and acetonitrile (B) and gradually changed to 35: 65 (v/v) for 30 min, and then switched back to 95: 5 (v/v) for 40 min.

Source (samples in which detected)	Structure (SMILES)
liver, small intestine, feces	COc1c(O)cc2oc3cc(O)c(CC4OC4(C)C)c(O)c3c(=O)c2c1CC=C(C)C (stereo not drawn) [M13]
liver, small intestine, feces	COc1c(O)c(O)c2oc3cc(O)c(CC=C(C)C)c(O)c3c(=O)c2c1CC=C(C)C [M11]
liver, small intestine, feces	COc1c(O)cc2oc3cc(O)c(CC=C(C)C)c(O)c3c(=O)c2c1CC1OC1(C)C (stereo not drawn) [M12]

Further lines, the compound ahead of its results:

Structure (SMILES)	Source (samples in which detected)
COc1c(O)cc2oc3cc4c(c(O)c3c(=O)c2c1CC=C(C)C)C=CC(C)(C)O4 [M7]	urine, feces, liver, small intestine
COc1c(O)cc2oc3cc(O)c4c(c3c(=O)c2c1CC=C(C)C)OC(C)(C)C=C4 [M8]	urine, feces, liver, small intestine
COc1c(O)cc2oc3c(O)c(O)c(CC=C(C)C)c(O)c3c(=O)c2c1CC=C(C)C [M10]	liver, small intestine, feces
